Values of other authors as cited in US10302625B2, “Peripheral measure of central brain inflammation, markers therefor and uses thereof” (CENTRE FOR ADDICTION AND MENTAL HEALTH, priority 2015, dated 2019).

Target: T1, TSPO (Sus scrofa, UniProt Q6UN27)
T1 sequence (Q6UN27 1-169): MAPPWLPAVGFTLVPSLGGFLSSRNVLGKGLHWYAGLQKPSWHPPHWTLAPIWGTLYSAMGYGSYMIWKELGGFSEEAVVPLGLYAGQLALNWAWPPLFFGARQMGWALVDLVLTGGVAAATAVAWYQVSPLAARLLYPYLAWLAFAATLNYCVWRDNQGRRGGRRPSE
Details: literature ref 19

Compound: CC(=O)N(Cc1ccccc1OCC[18F])c1cnccc1Oc1ccccc1 [[18F]FEPPA]
- affinity for TSPO: high, selective affinity for TSPO
